Consider 8 compounds from PubChem BioAssay (NCI).

Some test systems named below: 786-0 renal; A549 NSCLC; BT-549 breast; LOX IMVI melanoma; MALME-3M melanoma; MOLT-4 leukemia; NCI/ADR-RES ovarian; SW-620 colon.
Common to all, as to experiment: growth of human tumour cells (NCI), 48 h

Structures are written as SMILES.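 All cell lines were grown in 96-well plates and treated with compound for 48 hours. GI50 = concentration required for 50% inhibition of growth. TGI denotes the concentration required for complete inhibition of growth.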 *1 amine or outer side, *2 acyl side, *3 side chain or, on linkers, in order; H or OH if unused. Where a SMILES comes first, the peptide text is derived from it. Bridges are numbered along the chain shown (N, C = ends). [ ]: non-standard residue; d: D form. The star is where a group is joined. Phe(3-Me) = Cc1cccc(C[C@H](N)C(=O)O)c1; NH(4-Cl-2-F-phenyl) = Fc1cc(Cl)ccc1N*; Pro(4R-Me) = C[C@H]1CN[C@H](C(=O)O)C1; Propanoyl(3-NMe2) = CN(C)CCC(=O)*; Hyp = O=C(O)[C@@H]1C[C@@H](O)CN1; aThr = C[C@H](O)[C@H](N)C(=O)O; Pip = O=C(O)[C@@H]1CCCCN1; CO = O=C([*:1])[*:2]

`Cc1cccc(C[C@H](NC(=O)Nc2ccc(Cl)cc2F)C(=O)N[C@@H]2C(=O)N3C[C@H](OC(=O)CCN(C)C)C[C@H]3C(=O)N3CCCC[C@H]3C(=O)N[C@@H](C)C(=O)N3C[C@H](C)C[C@H]3C(=O)O[C@H]2C)c1` ({NH(4-Cl-2-F-phenyl)-CO}-[Phe(3-Me)][aThr][Hyp](Propanoyl(3-NMe2))[Pip]A[Pro(4R-Me)]; ester 2-C): the GI50 in the assay with 786-0 renal is 1.39 µM; in the assay with A549 NSCLC, 0.526 µM; with BT-549 breast it was 0.526 µM; in the assay with LOX IMVI melanoma, 0.683 µM; in the assay on MALME-3M melanoma, 0.567 µM; in the assay on MOLT-4 leukemia, 0.811 µM. Moreover, the GI50 was 10.8 µM in the assay on NCI/ADR-RES ovarian and 0.6 µM in the assay on SW-620 colon. Further, the TGI in the assay on 786-0 renal was 5.66 µM; in the assay on A549 NSCLC, 11.2 µM; in the assay on BT-549 breast it was 2.48 µM; with LOX IMVI melanoma, 2.2 µM; with MALME-3M melanoma, 1.97 µM; in the assay on MOLT-4 leukemia it was 4.65 µM. For the same compound, the TGI came to 28.5 µM in the assay on NCI/ADR-RES ovarian and 2.94 µM in the assay on SW-620 colon.
For `COc1cc(NC(N)=NCCC(C)(C)c2ccc(C(F)(F)F)cc2)ncc1C#N`, the GI50 was 1.71 µM in the assay with 786-0 renal; 1.61 µM in the assay with A549 NSCLC; 1.74 µM in the assay on BT-549 breast; 1.58 µM with LOX IMVI melanoma; 1.82 µM in the assay with MALME-3M melanoma; 1.84 µM in the assay on MOLT-4 leukemia. The figures for the GI50 with NCI/ADR-RES ovarian and in the assay with SW-620 colon were 1.8 µM and 2.01 µM, respectively. Also, the TGI was found to be 3.14 µM with 786-0 renal; 3.06 µM in the assay on A549 NSCLC; 3.21 µM in the assay on BT-549 breast; 2.92 µM in the assay on LOX IMVI melanoma; 3.47 µM with MALME-3M melanoma; 5.25 µM in the assay on MOLT-4 leukemia. Further, the TGI in the assay on NCI/ADR-RES ovarian came to 3.29 µM; with SW-620 colon, 4.14 µM.
As for `COc1ccc(CNc2nc(NCc3ccc(OC)cc3)c3n[nH]c(C(C)C)c3n2)cc1`, the GI50 in the assay on 786-0 renal was 4.07 µM; with A549 NSCLC, 7.25 µM; with BT-549 breast it was 3.47 µM; with LOX IMVI melanoma, 4.45 µM; in the assay with MALME-3M melanoma, 7.5 µM; in the assay with MOLT-4 leukemia, 3.88 µM. For the same compound, the GI50 with NCI/ADR-RES ovarian is 3.59 µM; in the assay on SW-620 colon, 3.27 µM. The TGI in the assay on 786-0 renal was 20.6 µM; in the assay on A549 NSCLC it was over 100 µM; in the assay with BT-549 breast, 12.2 µM; in the assay on LOX IMVI melanoma, 17.3 µM; in the assay on MALME-3M melanoma, over 100 µM; in the assay on MOLT-4 leukemia, 14.4 µM. For the same compound, the TGI is 15.9 µM with NCI/ADR-RES ovarian and over 100 µM in the assay with SW-620 colon.
On to `C=C(CN1CCN(c2cccc(F)c2)CC1)c1ccc(C(=O)Nc2ccccc2N)cc1`, for which the GI50 in the assay with 786-0 renal was 1.84 µM; in the assay with A549 NSCLC, 3.24 µM; in the assay on BT-549 breast, 1.33 µM; in the assay with LOX IMVI melanoma, 1.67 µM; with MALME-3M melanoma, 1.83 µM; in the assay with MOLT-4 leukemia, 0.315 µM. Also, the values for the GI50 with NCI/ADR-RES ovarian and in the assay with SW-620 colon were 0.307 µM and 2.53 µM, respectively. Besides, the TGI in the assay on 786-0 renal is 13 µM; with A549 NSCLC, 16.3 µM; in the assay with BT-549 breast it was 12.6 µM; with LOX IMVI melanoma, 13.1 µM; with MALME-3M melanoma, 68 µM; in the assay on MOLT-4 leukemia it was 2.76 µM. The figures for the TGI in the assay on NCI/ADR-RES ovarian and in the assay with SW-620 colon were 1.92 µM and over 100 µM, respectively.
Consider `O=C1C(Cl)=C(Nc2cccc(O)c2)C(=O)N1c1cccc(Cl)c1Cl`, for which the GI50 in the assay with 786-0 renal was 18.2 µM; in the assay with A549 NSCLC, 15 µM; in the assay with BT-549 breast, 24.5 µM; in the assay on LOX IMVI melanoma, 12.5 µM; with MALME-3M melanoma, 11.7 µM; in the assay with MOLT-4 leukemia it was 2.31 µM. Further, the GI50 in the assay with NCI/ADR-RES ovarian is 18.9 µM; in the assay on SW-620 colon it was 15.2 µM. For the same compound, the TGI in the assay on 786-0 renal was 63.2 µM; in the assay with A549 NSCLC it was 45.9 µM; in the assay on BT-549 breast, 61.2 µM; with LOX IMVI melanoma, 28.5 µM; in the assay with MALME-3M melanoma, 53.9 µM; with MOLT-4 leukemia, 11.8 µM. Besides, the TGI with NCI/ADR-RES ovarian came out at 46 µM; in the assay on SW-620 colon it was 34.5 µM.
`CC[C@@]1(O)C(=O)OCc2c1cc1n(c2=O)Cc2c-1nc1ccccc1c2/C=N/OC(C)(C)C`: the GI50 in the assay on 786-0 renal is under 0.01 µM; with A549 NSCLC, under 0.01 µM; in the assay with BT-549 breast, under 0.0139 µM; with LOX IMVI melanoma it was under 0.01 µM; in the assay with MALME-3M melanoma, 0.032 µM; with MOLT-4 leukemia, under 0.01 µM. The GI50 is under 0.01 µM in the assay with NCI/ADR-RES ovarian and under 0.011 µM in the assay on SW-620 colon. Further, the TGI amounted to 11.2 µM with 786-0 renal; 1.52 µM with A549 NSCLC; 2.02 µM with BT-549 breast; 0.133 µM with LOX IMVI melanoma; 1.58 µM with MALME-3M melanoma; 0.742 µM in the assay on MOLT-4 leukemia. Also, the TGI was found to be 0.395 µM in the assay with NCI/ADR-RES ovarian and 14.2 µM with SW-620 colon.
`Oc1cc2ccccc2cc1-c1n[nH]c(=S)n1-c1ccc(Cl)cc1`: the GI50 is 16.1 µM in the assay with 786-0 renal; 25.3 µM in the assay with A549 NSCLC; 16.2 µM with BT-549 breast; 11.2 µM in the assay with LOX IMVI melanoma; 8.85 µM in the assay with MALME-3M melanoma; 22.7 µM in the assay on MOLT-4 leukemia. In addition, the GI50 in the assay with NCI/ADR-RES ovarian is 13.8 µM; in the assay with SW-620 colon, 23 µM. Also, the TGI is 49.8 µM with 786-0 renal; over 100 µM with A549 NSCLC; over 100 µM in the assay with BT-549 breast; 50.2 µM in the assay on LOX IMVI melanoma; over 100 µM in the assay on MALME-3M melanoma; over 100 µM in the assay on MOLT-4 leukemia. For the same compound, the TGI in the assay on NCI/ADR-RES ovarian is 64.1 µM; with SW-620 colon it was over 100 µM.
With `Cc1ccc(S(=O)(=O)n2cc(-c3nnnn3-c3ccc(Cl)cc3)c(=O)c3ccccc32)cc1`, the GI50 in the assay on 786-0 renal was over 100 µM; with A549 NSCLC, 76.3 µM; in the assay on BT-549 breast, over 100 µM; in the assay with LOX IMVI melanoma, over 100 µM; in the assay on MALME-3M melanoma, over 100 µM; in the assay on MOLT-4 leukemia, 21.2 µM. Besides, the GI50 with NCI/ADR-RES ovarian and in the assay with SW-620 colon was over 100 µM throughout. Besides, the TGI with 786-0 renal was over 100 µM; in the assay with A549 NSCLC it was over 100 µM; in the assay on BT-549 breast, over 100 µM; in the assay with LOX IMVI melanoma, over 100 µM; in the assay on MALME-3M melanoma, over 100 µM; with MOLT-4 leukemia, 57 µM. The TGI in the assay with NCI/ADR-RES ovarian and in the assay on SW-620 colon was over 100 µM throughout.
